From patent US20240335431A1, “1-H-PYRROLO[2,3-c]PYRIDINE COMPOUNDS” (Acerta Pharma B.V., priority 2023, published 2024) come the findings set out here.

Broadly, the IC50 is the concentration needed to halve the response being measured.

One series has as its system HEL cells. In words: Proliferation assay, HEL control cell line (CellTiter-Glo, 7 days). The format is cell-based, human. The gist of the method: (§1)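 Cells were seeded at line-specific low densities for linear growth, exposed to 3.16-fold serial compound dilutions at 0.1% DMSO, and incubated 7 days at 37 °C, 5% CO2. Viability was read by CellTiter-Glo 2.0 luminescence; IC50 came from one-site fits of % inhibition, normalized between DMSO-treated cells (100%) and a day-0 plate (0%).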
(In general: Cellular ATP, detected with luciferase, serves as a proxy for viable cell number.)

Series [1] concerns MOLM-13 cells. The series can be described thus: Proliferation assay, MOLM-13 (CellTiter-Glo, 7 days). The format is cell-based, human. The gist of the method: as §1
The nature of series [2]: Human liver microsomes (HLMs) intrinsic clearance assay. The format is in vitro ADME. Background: Microsomes from liver hold many membrane-bound enzymes, among them those of drug oxidation.
Series [3] in a line: Human hepatocyte intrinsic clearance assay. The format is in vitro ADME. The conditions noted are these: human hepatocytes. How it is done: Human hepatocytes (LiverPool™ 10-Donor Human hepatocytes (Mixed Gender, PEG-free, Product No. S01205, 5 million cells per vial) were obtained from BioreclamationIVT. DMSO was sourced from Solarbio S&T Co Ltd. Leibovitz's L-15 Medium, Williams' Medium E, GlutaMAX™-1 (100×), HEPES, DPBS (10×) and Human Recombinant Insulin Solution were purchased from Gibco. Isotonic Percoll Solution was purchased from GE Healthcare. Fetal Bovine Serum (FBS) was purchased from Corning.
10 mM dexamethasone stock solution was prepared by dissolving 3.9 mg dexamethasone in 1 mL of DMSO. An Isotonic Percoll Solution was prepared by dilution of Percoll with DPBS (10×). 15 mL of Isotonic Percoll Solution (90% Percoll/10% DPBS) was added to 31.25 mL William's E medium containing 500 mL of GlutaMAX™-1 (100×), 750 mL of 1M HEPES, 2.5 mL of 5% FBS, 50 mL of 4 mg/mL Human Recombinant Insulin Solution and 5 mL of the 10 mM dexamethasone stock.
2 mL of 10 mM DMSO stock solutions of test compound were added to 198 mL acetonitrile to produce 100 mmol/L concentration.
The human hepatocyte vial was thawed at 37° C. in a waterbath. Once thawed, contents were poured into a 50 mL conical tube and centrifuged at 100 g for 10 minutes. The thawing medium was poured out and 4 mL L-15 medium was added. The tube was gently shaken to resuspend the hepatocytes and cells were counted with an appropriate cell counter. 247.5 mL of the hepatocyte suspension was transferred into each well of the plate and pre-warmed at 600 rpm and 50° C. to enable the temperature to rise to 37° C.
2.5 mL of the […] test compound solution was added to initiate the reaction (final concentration […]) and incubated at 37° C. with shaking at 900 rpm. At 0.5, 5, 15, 30, 45, 60, 80, 100 and 120 minutes, 20 mL was taken into a quenching solution of acetonitrile containing internal standards. The mix was vortexed at 800 rpm for 2 minutes followed by centrifugation for 20 minutes at 4000 rpm at 4° C. 40 mL of supernatant was transferred into a 96 well analysis plate containing 160 mL of water in each well. The analysis plate was shaken at 100 rpm for 2 minutes prior to analysis by LC-MS/MS.
Peak areas were determined from extracted ion chromatograms. Percent parent remaining was calculated from peak area of test compound. The slope value, k, was determined by linear regression of the natural logarithm of percent parent remaining versus incubation time.
The in vitro intrinsic clearance (in vitro CLint in mL/min/10^6 cells) was determined from the slope value using the following equation: […]
where V is the incubation volume (0.25 mL) and N is the number of hepatocytes per well (0.25×10^6 cells).

Another series deals with Menin protein (Homo sapiens, UniProt O00255, DEL460-519). The series can be described thus: Menin/MLL fluorescence polarization (FP) assay. The format is binding. As to conditions: Menin 2 nM, cRho110-Ahx-MBM1/MBM2 peptide 1 nM. How it is done:
Compounds were tested in a biochemical binding assay using Menin protein at 2 nM (N6his-tev-Menin_4i80, PB-20-1459) and the substrate cRho110-Ahx-MBM1/MBM2 peptide (UbiQ, UbiQ-Q20201030; cRh110-Ahx-[…]-QRVPALLLPPG-NH2) at 1 nM.
384 Low volume black plates (Corning #4514) were used. 5 μL/well compound or 3% DMSO was added at 10-fold serial dilutions in DMSO from 10 μM. 5 μL/well cRho110-Ahx-MBM1/MBM2 peptide or binding buffer (50 mM Tris pH 7.5, 50 mM NaCl, 1 mM TCEP, 0.01% BGG, 0.01% Brij-35) was added to all wells. 5 μL/well Menin protein or binding buffer (50 mM Tris pH 7.5, 50 mM NaCl, 1 mM TCEP, 0.01% BGG, 0.01% Brij-35) was added to all wells. Plates were read on an EnVision plate reader (Perkin Elmer) with excitation at 480 nm and emission at 535 nm P+S, and measured every 5 minutes for 180 minutes.
Data were analyzed in Genedata Screener®. IC50 values were determined by plotting % inhibition versus log compound concentration and using a one site dose response model. Raw data signals were normalized using 1% DMSO no Menin as 100% inhibitor control and 1% DMSO with Menin and no inhibitor as 0% inhibitor control.
Background: Fluorescence polarisation rises when a labelled molecule tumbles more slowly, as on binding a larger partner.

In another series the test system is OCI-AML3 cells. The series can be described thus: Proliferation assay, OCI-AML3 (CellTiter-Glo, 7 days). The format is cell-based, human. Put shortly: as §1
The test system of a further series is MV4;11 cells. In words: Proliferation assay, MV4;11 (CellTiter-Glo, 7 days). The format is cell-based, human. The conditions noted are these: read-out: MV-4-11 IC50. The gist of the method: as §1
Series [4] has as its system MOLM-13 cells. In words: Cell death in MOLM-13 cell line, Compound 56-2 with BCL2 inhibitor venetoclax (CellTiter-Glo, 4 days). The series is classed as cell-based, human. How it is done: Test compound was dispensed using a Tecan compound dispenser into 384-well plates (Microplate 384-well, polypropylene, F-bottom; Greiner Bio-One, #781201) in a ten-by-ten response matrix to assess the combination effects of Menin inhibition (Compound 56-2) together with BCL-2 inhibition (venetoclax) at the following concentrations after subsequent cell seeding in 40 μL of growth media: 10 μM, 3.16 μM, 1 μM, 0.316 μM, 0.1 μM, 0.0316 μM, 0.01 μM, 0.00316 μM, […], and vehicle (DMSO; Sigma-Aldrich, D2650). Cells were seeded at 1000 cells per well and incubated at 37° C. and 5% CO2. MOLM-13 cells were grown in RPM1 1640 (Gibco, #21875091) supplemented with 10% FBS (Gibco; #10091-148) and 1% Pen/Strep (Gibco; #15140-122). After 4 days of compound treatment, plates were placed at room temperature for 15 minutes. 10 μL CellTiter-Glo reagent (Promega, #G9242) was added to the cells and incubated for 10 minutes in the dark on a plate shaker at room temperature. A backseal (Perkin Elmer; #6005199) was added to the plates and luminescence was measured at 0.1 sec/well in an Envision (Perkin Elmer). Data were normalized for each plate so that the average of control wells (DMSO) was set to 0%, and the maximum observed value across the plate was set as 100%. Data fitting was performed using Graphpad Prism and combination effect was assessed using SynergyFinder.

Sequence of Menin protein (O00255 with tags, fused parts or gaps DEL460-519): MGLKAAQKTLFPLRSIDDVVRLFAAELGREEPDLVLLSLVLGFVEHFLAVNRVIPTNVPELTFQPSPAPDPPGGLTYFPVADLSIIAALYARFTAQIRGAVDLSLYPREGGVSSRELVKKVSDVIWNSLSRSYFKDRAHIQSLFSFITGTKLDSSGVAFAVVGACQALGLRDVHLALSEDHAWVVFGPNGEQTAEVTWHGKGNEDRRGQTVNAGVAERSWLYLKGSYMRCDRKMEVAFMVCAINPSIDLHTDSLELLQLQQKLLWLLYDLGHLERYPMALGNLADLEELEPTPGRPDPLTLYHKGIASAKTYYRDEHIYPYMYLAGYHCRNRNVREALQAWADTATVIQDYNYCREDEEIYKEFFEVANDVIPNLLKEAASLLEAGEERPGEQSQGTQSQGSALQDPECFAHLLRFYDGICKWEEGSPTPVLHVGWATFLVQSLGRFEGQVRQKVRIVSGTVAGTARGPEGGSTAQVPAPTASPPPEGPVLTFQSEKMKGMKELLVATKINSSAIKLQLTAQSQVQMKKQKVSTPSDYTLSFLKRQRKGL

For the compound `CCN(C(=O)c1cc(F)ccc1-n1c(C)c(C(=O)[C@@H]2CCN(C(=O)[C@@H]3CCC4(CC4)N3)[C@@H](C)C2)c2ccncc21)C(C)C` (single isomer, unassigned) [Example 52-3, N-Ethyl-5-fluoro-N-isopropyl-2-(2-methyl-3-((2R*,4S*)-2-methyl-1-((S)-4-azaspiro[2.4]heptane-5-carbonyl)piperidine-4-carbonyl)-1H-pyrrolo[2,3-c]pyridin-1-yl)benzamide], the IC50 with HEL cells is above 10000 nM; in the series on MOLM-13 cells [1], 1470 nM; on Menin protein it was 5950 nM. Also, in series [2] (1 mg/mL HLM, NADPH), the “HLM CLint” value is 210 µL/min/mg. Further, in series [3], the “HH CLint” value turned out to be 5.7 μl/min/1E6.

For the compound `CCN(C(=O)c1cc(F)ccc1-n1c(C)c(C(=O)[C@@H]2CCN(C(=O)[C@@H]3CCC4(CC4)N3)[C@@H](C)C2)c2ccncc21)C(C)C` (single isomer, unassigned) [Example 52-4, N-Ethyl-5-fluoro-N-isopropyl-2-(2-methyl-3-((2R*,4S*)-2-methyl-1-((S)-4-azaspiro[2.4]heptane-5-carbonyl)piperidine-4-carbonyl)-1H-pyrrolo[2,3-c]pyridin-1-yl)benzamide], the figures for the IC50 with HEL cells, in the series on MOLM-13 cells [1] and on Menin protein were above 10000 nM, 1090 nM and 2470 nM, respectively. Moreover, in series [2] (1 mg/mL HLM, NADPH), the “HLM CLint” value is above 300 µL/min/mg. The “HH CLint” value in series [3] turned out to be 7.9 μl/min/1E6.

`Cc1c(C(=O)[C@@H]2CCN(C(=O)[C@H]3NC[C@@H]4C[C@@H]43)[C@@H](C)C2)c2ccncc2n1-c1ccc(F)cc1C(=O)N(CC(F)(F)F)C(C)C` (single isomer, unassigned) [Example 53-4, 2-(3-((2R*,4S*)-1-((1S,2S,5R)-3-Azabicyclo[3.1.0]hexane-2-carbonyl)-2-methylpiperidine-4-carbonyl)-2-methyl-1H-pyrrolo[2,3-c]pyridin-1-yl)-5-fluoro-N-isopropyl-N-(2,2,2-trifluoroethyl)benzamide]: the IC50 in the series with OCI-AML3 cells is 118 nM; in the series with MV4;11 cells, 53 nM; in the series on HEL cells, above 10000 nM; in the series on MOLM-13 cells [1], 71 nM; against Menin protein it was 48 nM. Moreover, the “HLM CLint” value in series [2] (human, microsomes, 1 µM, pH 7.4) is 89 µL/min/mg.

With `CC1(C)CCC(CN2CCN(c3ccc(C(=O)NS(=O)(=O)c4ccc(NCC5CCOCC5)c([N+](=O)[O-])c4)c(Oc4cnc5[nH]ccc5c4)c3)CC2)=C(c2ccc(Cl)cc2)C1` [venetoclax, reference compound], in the series with MOLM-13 cells [4], the “cell viability as monotherapy (in words)” value is “cell viability loss was induced”.
